Literature values, collected in patent US12564551B2, “Composition or oat extract comprising avenanthramide and β-glucan” (SYMRISE AG, priority 2020, dated 2026).

Details: Avn C, followed by Avn B and Avn A

For `O=C(C=Cc1ccc(O)c(O)c1)Nc1ccc(O)cc1C(=O)O` [Avn C, N-(3′,4′-dihydroxycinnamoyl)-5-hydroxyanthranilic acid], the “antioxidant activity, rank among Avns (in words)” value is given as “highest activity”.
